Experimental data as given in patent US20080214506A1, “Novel use of ion channel active compound, meperidine, to mediate process of accelerated wound healing” (priority 2002, published 2008).

System: surgical wound
Assay: meperidine subcutaneous infiltration as local anesthetic in exodontia and oral surgery, clinical observation over five years
Settings: for blood loss per case: used as the local anesthetic
Text: Normal healing after surgical and third molar procedures can result in painful sequelae up to 14 days after surgery, which frequently require after-hour intervention by the surgeon. Among these sequelae are localized osteotitis (dry socket), trismus, facial edema, and protracted bleeding. For the purposes of this invention, the definition of “healed extraction site” will be a surgical wound that presents as normal clinical dental ridge architecture with pink gingival tissue and without classic granulation tissue, erythema, or edema.
For subcutaneous injection buccal or labial to extraction sites, meperidine is delivered in a standard insulin syringe pre-loaded with 40 mg meperidine in preservative-free solution (available as 1 cc (100 mg) ampules or 1 cc (100 mg) multidose vials). […] Consequently, early on, the use of meperidine for oral surgery was standardized as preservative-free and limited to low doses of 5-20 mg per extraction site with a maximum of 120 mg for any one individual. […] The surgical procedure also involves the concurrent use of intravenous barbituates (hexibarbitol), 0.2 mg atropine, 2 mg dexarnethasone, and concurrent use of 100% oxygen. Nitrous oxide, 20-40%, may be used intermittently during the case to assist the phobic dental patient through the procedure. Additionally each patient is encouraged to take orally 2000 units of vitamin C (adult dose) the day before surgery and 2000 units per day for 5 days postoperatively. […] (A thiophene local anesthetic has been used on rare occasions.)
The infiltration process usually includes 5-15 mg in the dental sulcus with 2-3 mg infused in the attached gingiva. No periodontal ligament or intraosseous injection of meperidine is used.

[1] = healed extraction site, injection during surgery, five year period

Structure (SMILES): Nc1ccccc1 [aminobenzene]
- blood loss per case (four impacted third molars): 70-150 cc

Structure (SMILES): CCOC(=O)C1(c2ccccc2)CCN(C)CC1 [meperidine]
- cases presenting with pink surgical site tissue including the mucoperiostial flap (3-4 days post surgery): 60-80%
- post-operative bleeding or wound management problems (10 months, April 2001 through February 2002, prophylactic antibiotics not always used): No post-operative bleeding or wound management problems developed
- patients healed before day 5 postoperatively (before the dry socket can occur): 80%
- time after injection at which rapid clotting is seen (during surgery): three
- time for extraction socket to form a complete clot with no further bleeding (during surgery): 2 to 5 min
- blood loss per case, rarely went over (four impacted third molars): ≤ 20 cc
- blood loss per case (four impacted third molars): 2-10 cc
- patients in whom healing occurred in 3-4 days [1]: 80%
- patients in whom healing occurred in 5-10 days [1]: 5%
- patients in whom healing occurred in 1 day [1]: 15%
- intraoperatively cardiac monitored arrythmias (human, in vivo): disappeared
- laryngiospasms requiring muscle paralyzing agents (human, in vivo): not experienced
- paresthesia (human, in vivo): can occur
- clinical numbness (immediate postoperative, infiltration): without any marked clinical numbness
- post-operative infections (in 5 years): no post-operative infections
- trismus or temeromandibular joint dysfunction requiring physical therapy (in 5 years): no cases
- relief of oral surgical pain from extractions (infiltrated subcutaneously buccal or labial to extraction site): clinically relieve oral surgical pain
- dry sockets (over 5 years): disappeared from the practice
- time after suturing until clotting satisfactory for discharge (patient with a factor deficiency disease): 15 min
- tissue reaction observed clinically (solution containing a preservative, subcutaneous injection at extraction sites): excessive facial edema and tissue necrosis
- nausea (total body dose under 120 mg): rare
